Paper PMC9916978, “Enantioselective Human Serum Albumin Binding of Apremilast: Liquid Chromatographic, Fluorescence and Molecular Docking Study” (International Journal of Molecular Sciences, 2023)

Tests used:
Type in all cases: binding
[1] = target: T1, human serum albumin (HSA) (Homo sapiens, UniProt P02768); test: Retention on Chiral-HSA column (HPLC) with different organic modifiers; settings: 25 °C
T1 construct: purchased Chiral Technologies Inc., a subsidiary of Daicel Chemical Industries Ltd
Description: In the next step, different organic modifiers in different percentages were tested. Columns with immobilized proteins, such as Chiral-HSA, are very susceptible to the type and percentage of the organic modifier, which can lead to changes in the tridimensional structure of the protein and can alter the secondary interactions between the analyte and the CSP [30, 31]. According to the instructions of the column manufacturer, the maximum usable organic modifier percentage in the mobile phase was 20% [32]. In our study, the effect of 2-propanol (IPA), 1-propanol (PROP), ethanol (EtOH), methanol (MeOH) and acetonitrile (ACN) on the retention factor (k) and selectivity (α) was investigated. The organic modifiers were used in five different percentages in 10 mM phosphate buffer adjusted to pH 7, using a flow rate of 0.7 mL/min, at 25 °C.
LC–UV analysis was carried out on an Agilent 1100 HPLC system consisting of a quaternary pump, an autosampler, a column compartment, and a DAD detector (Agilent Technologies, Waldbronn, Germany). ChemStation software (ver.: B04 03-SP2) was used for data analysis. UV detection was performed at 230 nm. The APR stock solution was prepared at 1 mg mL^−1 in MeOH, and further dilutions were made with water. An injection volume of 5 μL was used.
The retention factor (k) was calculated using the following equation:(5) k=tr−t0/to where tr is the retention time of the analyte, and t0 is the dead time, determined as the first peak appearance in the chromatogram.
(§1) The separation factor (α) was calculated as follows:(6) α=k2/k1 where k1 and k2 are the retention factors of the first- and second-eluting enantiomer, respectively. The k values were used to calculate the albumin-bound percentage (b%) using Equation (7) by zonal elution chromatography:(7) b%=k/1+k·100

[2] = target: T1, human serum albumin (HSA); test: van 't Hoff thermodynamic analysis on the Chiral-HSA column; settings: 10 mM phosphate buffer/IPA 96/4 v/v%, 10–30 °C, transfer from mobile phase to HSA stationary phase
Description: The separation temperature is one of the main determinant factors that can affect selectivity, resolution, retention factor and even the elution order of enantiomers during HPLC enantioseparations. To investigate the effects of temperature and to gain a better understanding of the mechanistic aspects of the enantiodiscrimination process on the Chiral-HSA column, thermodynamic analysis was performed in a 10 mM phosphate buffer/IPA 96/4 v/v% mixture.
To understand the energetic interactions between the analytes and the stationary phase, the classical van ’t Hoff approach was applied assuming only enantioselective interaction sites on the stationary phase. However, it should be noted that it is more realistic if both enantioselective and non-enantioselective interactions are considered.
Van ’t Hoff plots were constructed according to Equation (1) by plotting the natural logarithm of the retention factor as a function of the inverse of the absolute temperature in the temperature range of 10–30 °C, with 5 °C increments (a higher temperature was not applied due to possible column damage) (1) lnk=[…]+ΔS^°/R+lnΦ where R stands for the universal gas constant, T is the temperature in Kelvin, and k is the retention factor of the individual enantiomers. ΔH° denotes the standard enthalpy, while ΔS° is the standard entropy change of transfer of the solute from the mobile phase to the stationary phase, and Φ is the phase ratio of the HSA column. If ΔH° is constant in the selected temperature range, a linear relationship is obtained between lnk and 1/T, with a slope of −ΔH°/R and an intercept of ΔS°/R + lnΦ. Since the value of the phase ratio is seldom known, ΔS°* values (ΔS°* = ΔS° + RlnΦ) are often used to compensate for the uncertainty in Φ [38, 39].
Similarly, the differences in the change of standard enthalpy Δ(ΔH°) and standard entropy Δ(ΔS°) for the two enantiomers moving from the mobile phase to the stationary phase were also calculated according to the modified van ’t Hoff equation:(2) lnα=−∆(∆H^°)/RT+∆(∆S^°)/R
The isoenantioselective temperatures (Tiso) were also calculated as the ratio between Δ(ΔH°) and Δ(ΔS°), according to Equation (3). Tiso represents the temperature at which the enthalpy contribution is compensated by the entropic term, which means that […] (Δ(ΔG°)) equals zero. The thermodynamic parameter Δ(ΔG°) provides information on the strength of binding between selector and selectant, with more negative values indicating a more efficient binding. Consequently, a value of Δ(ΔG°) = 0 means that there is no difference between the binding strength of the enantiomers; therefore, at Tiso, the two enantiomers co-elute, and no separation is achieved. (3) Tiso=∆(∆H^°)/∆(∆S^°) (4) ∆(∆G^°)=∆(∆H^°)−T∗∆(∆S^°)

[3] = target: T1, human serum albumin (HSA); test: Albumin-bound percentage by zonal elution chromatography on Chiral-HSA column, extrapolated to zero organic modifier; settings: for Bound percentage (b%), Average + SD%: average over five organic modifiers
Text: As it was observed, the decrease of the organic modifier percentage in the mobile phase caused an exponential increase in the retention times of both enantiomers. Therefore, for the calculations, the logarithm of the retention factors was plotted against the organic modifier proportion. With this conversion, a linear relationship was obtained, which could be easily extrapolated to zero for supposedly the best imitation of in vivo conditions. As the intercept of these linear equations, a k value is expressed that can be used to calculate the bound% according to Equation (7).
as §1

[4] = 1-PROP 2% in 10 mM phosphate buffer pH 7, 0.7 mL/min
[5] = 1-PROP 4% in 10 mM phosphate buffer pH 7, 0.7 mL/min
[6] = 1-PROP 6% in 10 mM phosphate buffer pH 7, 0.7 mL/min
[7] = 1-PROP 8% in 10 mM phosphate buffer pH 7, 0.7 mL/min
[8] = 1-PROP 10% in 10 mM phosphate buffer pH 7, 0.7 mL/min
[9] = ACN 2% in 10 mM phosphate buffer pH 7, 0.7 mL/min
[10] = ACN 4% in 10 mM phosphate buffer pH 7, 0.7 mL/min
[11] = ACN 6% in 10 mM phosphate buffer pH 7, 0.7 mL/min
[12] = ACN 8% in 10 mM phosphate buffer pH 7, 0.7 mL/min
[13] = ACN 10% in 10 mM phosphate buffer pH 7, 0.7 mL/min
[14] = EtOH 2% in 10 mM phosphate buffer pH 7, 0.7 mL/min
[15] = EtOH 4% in 10 mM phosphate buffer pH 7, 0.7 mL/min
[16] = EtOH 6% in 10 mM phosphate buffer pH 7, 0.7 mL/min
[17] = EtOH 8% in 10 mM phosphate buffer pH 7, 0.7 mL/min
[18] = EtOH 10% in 10 mM phosphate buffer pH 7, 0.7 mL/min
[19] = IPA 2% in 10 mM phosphate buffer pH 7, 0.7 mL/min
[20] = IPA 4% in 10 mM phosphate buffer pH 7, 0.7 mL/min
[21] = IPA 6% in 10 mM phosphate buffer pH 7, 0.7 mL/min
[22] = IPA 8% in 10 mM phosphate buffer pH 7, 0.7 mL/min
[23] = IPA 10% in 10 mM phosphate buffer pH 7, 0.7 mL/min
[24] = MeOH 2% in 10 mM phosphate buffer pH 7, 0.7 mL/min
[25] = MeOH 4% in 10 mM phosphate buffer pH 7, 0.7 mL/min
[26] = MeOH 6% in 10 mM phosphate buffer pH 7, 0.7 mL/min
[27] = MeOH 8% in 10 mM phosphate buffer pH 7, 0.7 mL/min
[28] = MeOH 10% in 10 mM phosphate buffer pH 7, 0.7 mL/min
[29] = extrapolation to zero percentage of 1-propanol
[30] = extrapolation to zero percentage of ACN
[31] = extrapolation to zero percentage of EtOH
[32] = extrapolation to zero percentage of IPA
[33] = extrapolation to zero percentage of MeOH

T1 sequence (P02768 25-609): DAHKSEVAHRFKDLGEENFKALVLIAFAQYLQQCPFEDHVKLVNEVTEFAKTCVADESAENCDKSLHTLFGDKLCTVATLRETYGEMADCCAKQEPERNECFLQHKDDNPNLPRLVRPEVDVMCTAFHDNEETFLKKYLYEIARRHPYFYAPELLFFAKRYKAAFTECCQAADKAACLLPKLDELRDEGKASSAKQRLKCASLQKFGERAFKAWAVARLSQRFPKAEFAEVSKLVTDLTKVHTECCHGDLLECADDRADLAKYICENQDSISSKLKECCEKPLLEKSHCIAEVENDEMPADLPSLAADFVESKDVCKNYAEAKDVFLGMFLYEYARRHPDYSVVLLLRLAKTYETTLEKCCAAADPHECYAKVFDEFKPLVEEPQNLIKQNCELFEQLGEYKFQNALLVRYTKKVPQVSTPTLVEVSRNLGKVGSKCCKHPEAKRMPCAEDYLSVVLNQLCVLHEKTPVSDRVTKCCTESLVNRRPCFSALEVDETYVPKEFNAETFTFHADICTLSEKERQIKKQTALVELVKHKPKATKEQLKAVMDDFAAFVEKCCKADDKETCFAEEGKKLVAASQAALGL

SMILES | retention factor k [1, 4] | retention factor k [1, 5] | retention factor k [1, 6] | retention factor k [1, 7] | retention factor k [1, 8] | retention factor k [1, 9] | retention factor k [1, 10] | retention factor k [1, 11] | retention factor k [1, 12] | retention factor k [1, 13] | retention factor k [1, 14] | retention factor k [1, 15] | retention factor k [1, 16] | retention factor k [1, 17] | retention factor k [1, 18] | retention factor k [1, 19] | retention factor k [1, 20] | retention factor k [1, 21] | retention factor k [1, 22] | retention factor k [1, 23] | also measured
CCOc1cc([C@H](CS(C)(=O)=O)N2C(=O)c3cccc(NC(C)=O)c3C2=O)ccc1OC [R-APR] | 8.99 | 5.96 | 4.19 | 1.99 | 1.32 | 7.56 | 3.98 | 2.80 | 2.03 | 1.42 | 8.72 | 4.93 | 3.33 | 2.83 | 2.66 | 8.04 | 5.00 | 3.01 | 2.26 | 1.45 | retention factor k [1, 24]: 13.05; retention factor k [1, 25]: 9.32; retention factor k [1, 26]: 6.05; retention factor k [1, 27]: 4.48; retention factor k [1, 28]: 3.72; Δ(Δ)G° [2]: -0.906 kcal/mol; Δ(Δ)H° [2]: -6.338 kcal/mol; Δ(Δ)S° [2]: −76.29 J/molK; Bound percentage (b%), Average + SD% [3]: 92.7 ± 1.5%; Bound percentage (b%) [3, 29]: 94.0%; Bound percentage (b%) [3, 30]: 91.3%; Bound percentage (b%) [3, 31]: 91.4%; Bound percentage (b%) [3, 32]: 92.1%; Bound percentage (b%) [3, 33]: 94.5%
CCOc1cc([C@@H](CS(C)(=O)=O)N2C(=O)c3cccc(NC(C)=O)c3C2=O)ccc1OC [S-APR, apremilast] | 13.98 | 8.04 | 5.20 | 2.25 | 1.32 | 10.05 | 4.90 | 3.09 | 2.03 | 1.42 | 13.84 | 6.52 | 4.12 | 3.20 | 2.94 | 13.48 | 7.62 | 3.76 | 2.56 | 1.45 | retention factor k [1, 24]: 19.00; retention factor k [1, 25]: 15.27; retention factor k [1, 26]: 8.07; retention factor k [1, 27]: 5.32; retention factor k [1, 28]: 3.98; Δ(Δ)G° [2]: -1.06 kcal/mol; Δ(Δ)H° [2]: -7.237 kcal/mol; Δ(Δ)S° [2]: −86.78 J/molK; Bound percentage (b%), Average + SD% [3]: 95.5 ± 1.3%; Bound percentage (b%) [3, 29]: 96.4%; Bound percentage (b%) [3, 30]: 93.7%; Bound percentage (b%) [3, 31]: 94.8%; Bound percentage (b%) [3, 32]: 95.7%; Bound percentage (b%) [3, 33]: 96.8%
